Source: paper PMC12348660, “Synthesis, Characterization, HSA/DNA Binding, and Cytotoxic Activity of [RuCl2(η^6-p-cymene)(bph-κN)] Complex” (Molecules, 2025)

Target: T1, human serum albumin (HSA) (Homo sapiens, UniProt P02768)
T1 construct: gene ALB
Experiment: intrinsic tryptophan fluorescence quenching titration (Stern-Volmer, double-log), […]-310 K
Format: binding
Conditions: read-out: Kb [M^-1] (converted)

T1 sequence (P02768 25-609): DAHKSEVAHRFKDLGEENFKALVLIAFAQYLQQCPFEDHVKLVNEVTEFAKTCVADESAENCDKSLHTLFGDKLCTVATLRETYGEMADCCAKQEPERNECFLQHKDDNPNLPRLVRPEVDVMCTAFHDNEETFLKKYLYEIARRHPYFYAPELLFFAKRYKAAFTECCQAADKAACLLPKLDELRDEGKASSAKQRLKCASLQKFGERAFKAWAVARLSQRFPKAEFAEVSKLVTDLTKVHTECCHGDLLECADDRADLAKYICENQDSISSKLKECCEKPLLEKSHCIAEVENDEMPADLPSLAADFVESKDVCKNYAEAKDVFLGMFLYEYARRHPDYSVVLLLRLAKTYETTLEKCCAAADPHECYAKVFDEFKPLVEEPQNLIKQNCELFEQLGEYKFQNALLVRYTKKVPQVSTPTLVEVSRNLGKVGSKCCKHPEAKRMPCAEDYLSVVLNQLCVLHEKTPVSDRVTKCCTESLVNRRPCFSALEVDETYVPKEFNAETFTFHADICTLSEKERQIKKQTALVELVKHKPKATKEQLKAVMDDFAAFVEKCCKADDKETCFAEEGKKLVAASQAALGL

Q: With “dichlorido((diphenylmethylidene)hydrazine-κN)(η^6-p-cymene)ruthenium(II) [compound 1]” as the substance, how does the Kd read?
A: 60.6 µM
